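Exposure lasted 48 hours, with cells grown in 96-well plates and compounds tested at five concentrations. The concentration for 50% growth inhibition is given as GI50.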 The source made the active and inactive calls. Cut-off read from the data, not from the text of the source: active = GI50 up to about 1.1 µM and inactive = higher.
What was measured:
Assay in all cases: DTP human tumour cell line panel, 48 h
786-0 = tested on: 786-0
ACHN = tested on: ACHN
COLO 205 = tested on: COLO 205
HCT-15 = tested on: HCT-15
HL-60 = tested on: HL-60
HOP-92 = tested on: HOP-92
HT-29 = tested on: HT-29
Hs-578T = tested on: Hs-578T
K562 = tested on: K562
LOX IMVI = tested on: LOX IMVI
M14 = tested on: M14
MDA-N = tested on: MDA-N
NCI-H226 = tested on: NCI-H226
NCI-H460 = tested on: NCI-H460
OVCAR-4 = tested on: OVCAR-4
OVCAR-8 = tested on: OVCAR-8
SF-268 = tested on: SF-268
SN12C = tested on: SN12C
SW-620 = tested on: SW-620
UACC-257 = tested on: UACC-257

SMILES	GI50 (786-0)	GI50 (ACHN)	GI50 (COLO 205)	GI50 (HCT-15) [µM]	GI50 (HL-60)	GI50 (HOP-92)	GI50 (HT-29)	GI50 (Hs-578T)	GI50 (K562)	GI50 (LOX IMVI)	GI50 (M14)	GI50 (MDA-N)	GI50 (NCI-H226)	GI50 (NCI-H460)	GI50 (OVCAR-4)	GI50 (OVCAR-8)	GI50 (SF-268)	GI50 (SN12C)	GI50 (SW-620)	GI50 (UACC-257)
Cn1c(=O)c2c(nc3n(CCCCl)c(=O)ccn23)n(C)c1=O	> 100 µM (inactive)	> 100 µM (inactive)	> 100 µM (inactive)	> 100	> 100 µM (inactive)	> 100 µM (inactive)	> 100 µM (inactive)	> 100 µM (inactive)	> 100 µM (inactive)	> 100 µM (inactive)	> 100 µM (inactive)	> 100 µM (inactive)	> 100 µM (inactive)	> 100 µM (inactive)	> 100 µM (inactive)	> 100 µM (inactive)	> 100 µM (inactive)	> 100 µM (inactive)	> 100 µM (inactive)	> 100 µM (inactive)
COc1ccc(OC)c2c(/C=C/c3ccc(N(C)C)cc3)ccnc12	4.01 µM (inactive)	4.68 µM (inactive)	> 10 µM (inactive)	> 10	1.91 µM (inactive)	5.87 µM (inactive)	4.11 µM (inactive)	8.15 µM (inactive)	> 10 µM (inactive)	2.94 µM (inactive)	7.36 µM (inactive)	5.24 µM (inactive)	> 10 µM (inactive)	9.68 µM (inactive)	4.32 µM (inactive)	> 10 µM (inactive)	> 10 µM (inactive)	8.05 µM (inactive)	> 10 µM (inactive)	4 µM (inactive)
O=C(O)CCSC1=NCCN1	> 100 µM (inactive)	> 100 µM (inactive)	> 100 µM (inactive)	> 100	> 100 µM (inactive)	> 100 µM (inactive)	> 100 µM (inactive)	> 100 µM (inactive)	> 100 µM (inactive)	> 100 µM (inactive)	> 100 µM (inactive)	> 100 µM (inactive)	> 100 µM (inactive)	> 100 µM (inactive)	> 100 µM (inactive)	> 100 µM (inactive)	> 100 µM (inactive)	> 100 µM (inactive)	> 100 µM (inactive)	64 µM (inactive)
Cc1cc(CS(=O)(=O)/C=C/c2ccccc2[N+](=O)[O-])c(CS(=O)(=O)/C=C/c2ccccc2[N+](=O)[O-])cc1C	12.5 µM (inactive)	34.4 µM (inactive)	> 100 µM (inactive)	> 33	> 79.4 µM (inactive)	33.2 µM (inactive)	> 61.7 µM (inactive)	3.44 µM (inactive)	35.3 µM (inactive)	24.3 µM (inactive)	> 69.8 µM (inactive)	> 27.9 µM (inactive)	19 µM (inactive)	33.8 µM (inactive)	7.98 µM (inactive)	24.1 µM (inactive)	25.4 µM (inactive)	52.6 µM (inactive)	> 54.2 µM (inactive)	> 65 µM (inactive)
O=C1CSC(c2cccc(Oc3ccccc3)c2)N1c1ccc(Cl)cc1 (stereo not given)	31.8 µM (inactive)	26.1 µM (inactive)	18.5 µM (inactive)	26.4	24.9 µM (inactive)	13.4 µM (inactive)	37.8 µM (inactive)	32.9 µM (inactive)	15.7 µM (inactive)	18 µM (inactive)	15 µM (inactive)	19.4 µM (inactive)	32.8 µM (inactive)	17.1 µM (inactive)	26.2 µM (inactive)	34.7 µM (inactive)	30.3 µM (inactive)	41.3 µM (inactive)	33.6 µM (inactive)	17.4 µM (inactive)
Cc1ccc(-n2cc(-c3ccc(Cl)cc3)c3c(N/N=C4\SCC(=O)N4C)ncnc32)cc1	3.39 µM (inactive)	7.36 µM (inactive)	4.09 µM (inactive)	59.3	> 100 µM (inactive)	2.62 µM (inactive)	12.3 µM (inactive)	3.59 µM (inactive)	5 µM (inactive)	5.64 µM (inactive)	4.78 µM (inactive)	5.19 µM (inactive)	7.35 µM (inactive)	4.31 µM (inactive)	2.48 µM (inactive)	5.09 µM (inactive)	7.05 µM (inactive)	5.6 µM (inactive)	16.3 µM (inactive)	4.66 µM (inactive)
CCOC(=O)Nc1cc2c(c(N)n1)N=C(c1ccc(Cl)cc1Cl)CN2	< 0.0217 µM (active)	0.0535 µM (active)	0.0425 µM (active)	< 0.0229	0.0132 µM (active)	17.3 µM (inactive)	< 0.0181 µM (active)	< 0.0143 µM (active)	< 0.01 µM (active)	< 0.0195 µM (active)	0.0766 µM (active)	< 0.01 µM (active)	0.0314 µM (active)	< 0.0154 µM (active)	14.3 µM (inactive)	0.0276 µM (active)	0.0845 µM (active)	0.0805 µM (active)	< 0.0194 µM (active)	20.8 µM (inactive)
